The record followed here is patent US4171367A, “Pyrazolyl amino imidazolines” (Abbott Laboratories, priority 1977, dated 1979).

Each structure is given as a SMILES string. Where a name gives a salt, the structure may show the parent alone. Read-outs that look alike come from different tables or passages of the source.

The test has as its system reverse passive Arthus reaction. In words: reverse passive Arthus reaction test in rats (anti-inflammatory effect, oral). The format is in vivo, rat (male Sprague-Dawley). As to conditions: 4 h, read-out: Percent Inhibition of Arthus Reaction; for inhibition in vivo at 25 mg/kg: oral dose 25 mg/kg. The text has this:
The anti-inflammatory activity of the compounds of this invention was established using the reverse passive Arthus reaction in the rat as described by G. W. Carter and R. A. Krause in Federation Proceedings, Vol. 35, p. 774, 1976. The carrageenin rat paw edema test (Winter et al, Proc. Soc. Exp. Biol. Med., 111, 554, 1962) can be used to establish anti-inflammatory activity, however, unlike carrageenin induced edema, the Arthus reaction is a well characterized immune reaction which bears close resemblance to the pathogenisis of rheumatoid arthritis.
The Arthus reaction represents one of the oldest and best studied models of immunological injury. It is produced by the injection of antigen locally into a hyperimmunized animal or by the injection of a small amount of antibody into the skin of an animal that has just previously been given a large amount of soluble antigen intravenously. In both cases the antigen and antibody become deposited in the walls of small venules. Plasma complement is rapidly bound and activated. Within a few hours neutrophils (PMNs) accumulate, resulting in disruption of the basement membrane of vessel walls and marked edema and hemorrage in the surrounding tissue.
The reverse passive Arthus reaction test in rats is conducted as follows. Male Sprague-Dawley rats weighing approximately 130-160 g. are used, 4 rats per group. All animals are injected intravenously with 0.5 ml. 0.075% Bovine Serum Albumin (B.S.A.)+0.2% Evans Blue solution. Each rat then receives an oral dose of drug; one drug is administered per group.
Thirty minutes subsequent to drug dosing, each animal is injected intradermally with 0.05 ml. 1.44% Anti-B.S.A. into the dorsal skin. Four hours later the animals are sacrificed, the dorsal skin reflexed, and the lesion excised. Two perpendicular diameters of each lesion are measured. The average diameters of the lesions from the treated groups are compared with the average diameters from the control group to determine any drug effect.
The anti-inflammatory activity of representative compounds of this invention, as determined by the reverse passive Arthus reaction test in rats, is summarized in Table I.

As for `Cc1cc(NC2=NCCN2)n(C(C)C)n1` [R1=Me2CH, R2=Me, R3=H, R4=H, 2-(1-Isopropyl-3-methyl-5-pyrazolyl)amino-2-imidazoline], the inhibition in vivo at 50 mg/kg (oral dose 50 mg/kg, rat) was 20%. For the same molecule, the inhibition in vivo at 100 mg/kg (oral dose 100 mg/kg, rat) is 29%.

Turning to `CC(C)c1cc(NC2=NCCN2)n(C)n1` [R1=Me, R2=Me2CH, R3=H, R4=H, 2(3-Isopropyl-1-methyl-5-pyrazolyl)-amino-2-imidazoline], the inhibition in vivo at 50 mg/kg (oral dose 50 mg/kg, rat) worked out at 33%. Further, the inhibition in vivo at 100 mg/kg (oral dose 100 mg/kg, rat) turned out to be 42%.

Regarding `CC(=O)N1CCN=C1Nc1c(C)nn(C)c1Cl` [R1=Me, R2=Me, R3=(5) C1, R4=COCH3, 1-acetyl-2-(5-chloro-1,3-dimethyl-4-pyrazolyl) amino-2-imidazoline hydrochloride], under “rat”, the inhibition in vivo at 25 mg/kg turned out to be 39%. Besides, for the setting “oral dose 100 mg/kg, rat”, the inhibition in vivo at 100 mg/kg was determined as 63%.

On to `CC(=O)N1CCN=C1Nc1ccnn1-c1ccccc1` [R1=C6H5, R2=H, R3=H, R4=COCH3, 1-Acetyl-2-(1-phenyl-5-pyrazolyl)-amino-2-imidazoline], for which the inhibition in vivo at 100 mg/kg (oral dose 100 mg/kg, rat) was 70%.

On to `CC(C)c1nn(C)c(NC2=NCCN2)c1Br` [R1=Me, R2=Me2CH, R3=Br, R4=H, 2(4-Bromo-3-isopropyl-1-methyl-5-pyrazolyl)amino-2-imidazoline hydrobromide], for which, under “Rattus norvegicus, po”, the inhibition in vivo at 50 mg/kg worked out at 37% and the inhibition in vivo at 100 mg/kg is 42%.

Take `Brc1c(-c2ccccc2)nn(-c2ccccc2)c1NC1=NCCN1` [R1=C6H5, R2=C6H5, R3=Br, R4=H, 2(4-Bromo-1,3-diphenyl-5-pyrazolyl) amino-2-imidazoline hydrobromide]: under “oral dose 100 mg/kg, rat”, the inhibition in vivo at 100 mg/kg worked out at 17%.

As to `c1ccc(-c2cc(NC3=NCCN3)n(-c3ccccc3)n2)cc1` [R1=C6H5, R2=C6H5, R3=H, R4=H, 2(1,3-Diphenyl-5-pyrazolyl) amino-2-imidazoline], the inhibition in vivo at 100 mg/kg (oral dose 100 mg/kg, rat) amounted to 32%.

Regarding `Brc1cnn(C2CCCCC2)c1NC1=NCCN1` [R1=drawing 4, R2=H, R3=Br, R4=H, 2-(4-Bromo-1-cyclohexyl-5-pyrazolyl)-amino-2-imidazoline hydrochloride], the inhibition in vivo at 100 mg/kg (oral dose 100 mg/kg, rat) was found to be 15%.

For the molecule `Cc1cc(NC2=NCCN2)n(CCC(C)C)n1` [R1=Me2CHCH2CH2, R2=Me, R3=H, R4=H, 2[1-(3-Methylbutyl)-3-methyl-5-pyrazolyl]amino-2-imidazoline], the inhibition in vivo at 100 mg/kg (Rattus norvegicus, po) was determined as 15%.

For the molecule `CC(C)c1nn(C(C)C)c(NC2=NCCN2)c1Br` [R1=Me2CH, R2=Me2CH, R3=Br, R4=H, 2-(4-Bromo-1,3-di-isopropyl-5-pyrazolyl)amino-2-imidazoline hydrobromide], the inhibition in vivo at 100 mg/kg (Rattus norvegicus, po) amounted to 27%.

As to `CC(C)c1cc(NC2=NCCN2)n(C(C)C)n1` [R1=Me2CH, R2=Me2CH, R3=H, R4=H, 2-(1,3-Di-isopropyl-5-pyrazolyl)-amino-2-imidazoline], the inhibition in vivo at 100 mg/kg (oral dose 100 mg/kg, rat) amounted to 11%.

In the case of `Cc1nn(C)c(NC2=NCCN2)c1Br` [R1=Me, R2=Me, R3=Br, R4=H, 2(4-Bromo-1,3-dimethyl-5-pyrazolyl)-amino-2-imidazoline], where the note is “oral dose 50 mg/kg, rat”, the inhibition in vivo at 50 mg/kg was 45%.

For `Brc1cnn(-c2ccccc2)c1NC1=NCCN1` [R1=C6H5, R2=H, R3=Br, R4=H, 2-(4-Bromo-1-phenyl-5-pyrazolyl)-amino-2-imidazoline hydrochloride], the inhibition in vivo at 25 mg/kg (rat) turned out to be 41%. In addition, the inhibition in vivo at 100 mg/kg (oral dose 100 mg/kg, rat) was found to be 59%.

For the molecule `CC(=O)N1CCN=C1Nc1cc(C(C)C)nn1C` [R1=Me, R2=Me2CH, R3=H, R4=COCH3, 1-Acetyl-2(3-isopropyl-1-methyl-5-pyrazolyl)amino-2-imidazoline], the inhibition in vivo at 100 mg/kg (oral dose 100 mg/kg, rat) worked out at 18%.

Regarding `c1cc(NC2=NCCN2)n(C2CCCCC2)n1` [R1=drawing 5, R2=H, R3=H, R4=H, 2-(1-Cyclohexyl-5-pyrazolyl)-amino-2-imidazoline], the inhibition in vivo at 100 mg/kg (oral dose 100 mg/kg, rat) was 15%.

With `Cc1nn(C)c(Cl)c1NC1=NCCN1` [R1=Me, R2=Me, R3=(5) (C1), R4=H, 2-(4-chloro-1,3-dimethyl-4-pyrazolyl)-amino-2-imidazoline hydrochloride], under “oral dose 10 mg/kg, rat”, the inhibition in vivo at 10 mg/kg was found to be 49%. For the same molecule, where the note is “rat”, the inhibition in vivo at 25 mg/kg amounted to 64%. The inhibition in vivo at 100 mg/kg (oral dose 100 mg/kg, rat) came to 69%.

`c1ccc(-n2nccc2NC2=NCCN2)cc1` [R1=C6H5, R2=H, R3=H, R4=H, 2-(1-Phenyl-5-pyrazolyl)-amino-2-imidazoline]: the inhibition in vivo at 25 mg/kg (rat) worked out at 62%. The inhibition in vivo at 100 mg/kg (oral dose 100 mg/kg, rat) amounted to 75%.

Take `Cc1nn(C)c(NC2=NCCN2)c1I` [R1=Me, R2=Me, R3=I, R4=H, 2(1,3-Dimethyl-4-iodo-5-pyrazolyl)-amino-2-imidazoline]: under “oral dose 100 mg/kg, rat”, the inhibition in vivo at 100 mg/kg amounted to 43%.

In the case of `Cc1nn(CCC(C)C)c(NC2=NCCN2)c1Br` [R1=Me2CHCH2CH2, R2=Me, R3=Br, R4=H, 2[4-Bromo-1-(3-methylbutyl)-3-methyl-5-pyrazolyl]amino-2-imidazoline hydrochloride], where the note is “Rattus norvegicus, po”, the inhibition in vivo at 100 mg/kg is 16%.

For `CC(=O)N1CCN=C1Nc1cc(C)nn1C(C)C` [R1=Me2CH, R2=Me, R3=H, R4=COCH3, 1-Acetyl-2(1-isopropyl-3-methyl-5-pyrazolyl)amino-2-imidazoline], the inhibition in vivo at 50 mg/kg (oral dose 50 mg/kg, rat) was determined as 30%. Moreover, the inhibition in vivo at 100 mg/kg (oral dose 100 mg/kg, rat) stood at 39%.

In the case of `Cc1cc(NC2=NCCN2)n(C)n1` [R1=Me, R2=Me, R3=H, R4=H, 2(1,3-Dimethyl-5-pyrazolyl) amino-b 2-imidazoline], under “oral dose 100 mg/kg, rat”, the inhibition in vivo at 100 mg/kg is 55%.
